Measurements from patent US9249086B2, “Carboxylic acid ALA esters” (Photocure ASA, priority 2012, dated 2016).
Structures can show the parent of a compound that is named as a salt. Where two headings read alike, the source gives them in different places. Marks after values point to notes of the source that are not given here.

Key:
WiDr cells [1] = experiment: In vitro PpIX formation in cancer cells; assay type: cell-based
Experimental: These untreated cells served as a control.
After treatment with the compounds of the invention and reference compounds as described above, the cells were washed twice with PBS and scraped off the substrate with a Costar cell scraper into a solution of 1M HClO4 in 50% methanol. Cell debris was removed by centrifugation. PpIX was quantitatively extracted from the cells with this procedure. The PpIX content in each sample was determined fluorometrically using a Perkin Elmer LS50B spectrofluorimeter. PpIX was excited at 407 nm, and the emitted fluorescence was measured at 606 nm using a long pass cut-off filter (530 nm) on the emission side. A standard of known PpIX concentration was added to the samples at concentrations increasing the total fluorescence by 50-100%. The PpIX concentration in each sample was calculated relative to the protein content in control cells as measured by a bicinchoninic acid protein assay.

WiDr cells [2] = details: MTS assay; for Dark toxicity (cell toxicity in the absence of light): 0.001-1 mM, 4 hours incubation in the dark
Experimental: Stock solutions of the compounds above were prepared by dissolving them in DMSO to a concentration of 100 mM. Concentrations used in the experiments were obtained by diluting the stock solutions with PBS or cell culture medium.
WiDr cells derived from a primary adenocarcinoma of the rectosigmoid colon were subcultured in RPMI 1640 medium (Gibco) containing 10% fetal calf serum, 100 U/ml penicillin, 100 μg/ml streptomycin and 1% glutamine. Cells were split 1:100 twice a week, and maintained at 37° C. and 5% CO2 in a humid environment. For carrying out the experiments, 5×10^5 WiDr cells in 2 ml of the medium described above were added to each well of 6-well plastic tissue-culture plates (Nunc) and left for 48 hr at 37° C. and 5% CO2 in a humid environment for proper attachment to the substrate. The cells were then washed twice with RPMI 1640-medium without serum, followed by the addition to the wells of the appropriate dilutions of the compounds and references above in 2 ml of fresh culture medium to final concentrations of 0.001, 0.003, 0.01, 0.03, 0.1, 0.3 and 1 mM in duplicates. To two wells, only 2 ml of fresh culture medium was added. These untreated cells served as a control. The cells were incubated at 37° C. for four hours in the dark.
Dark toxicity, i.e. cell toxicity in the absence of light, was measured by MTS assay immediately after the above-described 4 hours of incubation with the compounds and references at various concentrations.

[3] = system: skin of healthy nude mice; experiment: In vivo skin fluorescence study in healthy nude mice; details: cream in Unguentum Merck, equimolar (16-19%), about 100 μl on back, 6 hours in the dark, excitation 365 and 405 nm, mean of 5 mice
Experimental: A study was carried out to assess the potential of the compounds of the invention as precursors for photosensitisers for skin application. As such, the compounds of the invention need to be able to penetrate the skin, to be taken up by the cells in the skin and to be converted to photosensitisers. The result of this process can be visualized by exposing the skin to light which excites the photosensitiser molecules and to determine the amount of energy which is released in the form of fluorescence when the excited photosensitiser molecules relax to an energetically lower state.
Compounds 2, 4 and 7 above were formulated as creams in Unguentum Merck. The compounds were tested in equimolar amounts:
3 groups of mice (5 mice/group, each mouse of one group receiving the same cream formulation) were included in the experiment. About 100 μl of cream formulation was applied onto the back of one mouse. The mice were kept in the dark for 6 hours prior to skin fluorescence measurement to avoid photobleaching. For assessment of skin fluorescence, a fluorescence camera (Medeikonos PDD/PDT, Medeikonos AB, Gothenburg, Sweden) was used and images of the back of each mouse were taken. Excitation was carried out at wavelengths of 365 and 405 nm and 2 s illumination time. Each image was calibrated to a fluorescence standard (Uranyl Standard, J&M, Analytische Mess- and Regeltechnik GmbH, Hamburg, Germany) and adjusted for background fluorescence. The mean amount of skin fluorescence in each image was calculated by means of image analyzer-software (MatLab 7.2.0.232, Math-Works, Natick, Mass., USA) and the mean amount of skin fluorescence for each group of mice (5 mice/compound) was calculated.

[4] = system: UV-damaged mouse skin versus healthy mouse skin; experiment: In vivo skin fluorescence in healthy nude mice and nude mice with UV-damaged skin; details: nude mice; for Ratio of skin fluorescence in UV-damaged mouse skin to skin fluorescence in healthy mouse skin: equimolar creams (16% / 14%), about 125 μl, tape-stripped skin, 3 hours in the dark, 10 mice per group; for Selectivity for UV-damaged skin: equimolar creams, 3 hours
Experimental: An experiment was carried out to assess the potential for compound 6 to show selective accumulation in UV-damaged skin. For the assessment, skin fluorescence after application of the compound was measured in vivo in healthy mouse skin and in UV-damaged mouse skin. A nude mice model with UV-damaged skin (actinic damage) was established as described by K. Togsverd-Bo et al., Exp. Dermatol. 2012, 21, 260-264.
Equimolar amounts of compound 2 (1-(isopropyl carboxy)ethyl 5-amino-4-oxopentanoate hydrochloride prepared according to Example 2) and compound 5 (3-carboxypropyl 5 amino-4-oxopentanoate hydrochloride prepared according to Example 5) were formulated as a cream in Unguentum Merck: compound 2: 16%, 160 mg/g and compound 5: 14%, 140 mg/g, respectively.
One group of healthy nude mice (10 mice, control group) and one group of nude mice with UV-damaged skin (10 mice) were included in the experiment. About 125 μl of cream formulation was applied onto the back of each mouse. Prior to cream application, the dorsal skin of each mouse was tape-stripped five times to enhance penetration of the compound: adhesive film (Scotch tape, 3M) was pressed onto the skin of the application area, the tape strip was removed with one quick movement and a new tape strip was used. The mice were kept in the dark for 3 hours prior to skin fluorescence measurement to avoid photobleaching. Skin fluorescence was assessed as described in Example 17 and the mean amount of skin fluorescence for each group of mice was calculated.
The ratio of skin fluorescence [a.u] in UV-damaged mouse skin to skin fluorescence [a.u.] in healthy mouse skin was determined.

[5] = system: Rat bladder cells (AY-27); experiment: Cytotoxicity in rat bladder cells (MTT test); assay type: cell-based; details: AY-27 cells; for Cytotoxicity: 2 hours, MTT test; for Levels of cytotoxicity compared to HAL: compound at 1 mM
Experimental: All experiments were performed in 4-5 replicates under subdued light. For concentrations of compounds 1 mM, the cytotoxicity was assessed with MTT test. Exponentially growing cells were incubated with freshly prepared solution or medium as described above for 2 hours in 96-well plates. After the incubation, the solutions or the medium was discarded and the cells were washed twice with PBS. Then 50 μl of MTT (2.5 mg·ml^−1) was added to 150 μl of RPMI serum-free medium per well and incubated for 3 hours. Absorbance was measured by dissolving formazan crystals with 50 μl of DMSO. The absorbance was normalized to that of control cells.

[6] = system: Rat bladder cells (AY-27); experiment: PpIX measurements in rat bladder cells; assay type: cell-based; details: AY-27 cells, 2 hours incubation
Experimental: Rat bladder cells (AY-27) were grown in the culture medium (RPMI 1640 supplemented with 9% fetal calf serum 1% L-glutamin (200 mM) and 1% penicillin (10 000 UI), streptomycin (10 000 μg·mL^−1). Exponentially growing cells (AY-27) were incubated for 2 hours with freshly prepared solutions of 0.8 mM HAL (which is a tenth of the concentration which is used for bladder cancer […]). Control cells received serum-free medium without any test or reference compounds. After the incubation, the solutions or the medium was discarded and the cells were rinsed 2 times with ice-cooled PBS. PpIX was extracted from cells using an ice-cold lysis extraction mixture, consisting of ethanol/DMSO/acetic acid (80/20/1, v/v/v). The cell lysate was centrifuged (400 g, 10 min, 2° C.), the pellet was grinded and the suspension was sonicated for 15 min before being centrifuged. The fluorescence signal of PpIX was measured with a Perkin-Elmer LS 55 spectrometer (Perkin-Elmer, Beaconsfield, UK) and expressed as a function of the protein content. The fluorescence intensity at 635 nm in each sample was reported on a calibration curve established with PpIX (Sigma-Aldrich, France) diluted in extraction mixture as described above. The PpIX concentration was expressed relative to the protein content. Briefly, a lysis buffer mixture (1 mM EDTA, 1% Triton X-100 and 10 mM Tris-HCl; pH 7.4) was added to frozen cell dishes together with 500 mM PMSF (anti-protease) solution in DMSO. Lysates were kept on ice for 30 minutes and centrifuged at 4° C. for 20 minutes at 15 000 g. The protein content was then measured against a BSA calibration curve by a Biorad DC protein assay kit (Bio-Rad, France) based on a method developed by Lowry.

[7] = WiDr cells, 0.001-1 mM, 4 hours incubation, * mean of two, ** mean of 3 experiments

## NCC(=O)CCC(=O)OCCCCCCCCCCCC(=O)O [Compound 14, 11-carboxyundecyl 5-amino-4-oxopentanoate hydrochloride]
WiDr cells [1]
  Compound concentration for max PpIX formation: 0.1 mM
  Max. PpIX content: 65* ng/mg protein
WiDr cells [2]
  Dark toxicity (cell toxicity in the absence of light): no cell toxicity was observed

## CC(C)OC(=O)C(C)OC(=O)CCC(=O)CN (centres unmarked) [Compound 2, 1-(isopropylcarboxy)ethyl 5-amino-4-oxopentanoate hydrochloride]
[3]
  Skin fluorescence: 31557 a.u.
[4]
  Ratio of skin fluorescence in UV-damaged mouse skin to skin fluorescence in healthy mouse skin: 1.14
  Selectivity for UV-damaged skin: some selectivity for UV-damaged skin

## Cl.NCC(=O)CCC(=O)OCCCCCCCCCCCCCCCC(=O)O [Compound 15, 15-carboxypentadecyl 5-amino-4-oxopentanoate hydrochloride]
WiDr cells [1]
  Compound concentration for max PpIX formation: 0.1 mM
WiDr cells [1]; [7]
  Max. PpIX content: 25 ng/mg protein
WiDr cells [2]; 4 hours in the dark
  Concentrations at which compound was toxic (dark toxicity): above 0.1 mM

## NCC(=O)CCC(=O)OCCCCCCCCCC(=O)O [Compound 12, 9-carboxynonyl 5-amino-4-oxopentanoate hydrochloride]
WiDr cells [1]; [7]
  Max. PpIX content: 90* ng/mg protein
WiDr cells [1]; WiDr cells, 4 hours incubation
  Compound concentration for max PpIX formation: 0.05 mM
WiDr cells [2]
  Dark toxicity (cell toxicity in the absence of light): no cell toxicity was observed

## NCC(=O)CCC(=O)OCCCCCCCC(=O)O [Compound 10, 7-carboxyheptyl 5-amino-4-oxopentanoate hydrochloride]
WiDr cells [1]
  Compound concentration for max PpIX formation: 1 mM
  Max. PpIX content: 55* ng/mg protein
WiDr cells [2]
  Dark toxicity (cell toxicity in the absence of light): no cell toxicity was observed

## Cl.NCC(=O)CCC(=O)O [ALA, 5-ALA hydrochloride, reference compound]
WiDr cells [1]; [7]
  Max. PpIX content: 80* ng/mg protein
WiDr cells [1]; WiDr cells, 4 hours incubation
  Compound concentration for max PpIX formation: ≧1 mM
WiDr cells [2]
  Dark toxicity (cell toxicity in the absence of light): no cell toxicity was observed

## NCC(=O)CCC(=O)OCCCCCC(=O)O [Compound 9, 5-carboxypentyl 5-amino-4-oxopentanoate hydrochloride]
WiDr cells [1]
  Compound concentration for max PpIX formation: 1 mM
  Max. PpIX content: 40 ng/mg protein
WiDr cells [2]
  Dark toxicity (cell toxicity in the absence of light): no cell toxicity was observed

## CCCCCCOC(=O)CCC(=O)CN.Cl [HAL, 5-ALA hexyl ester hydrochloride, reference compound]
[5]; 0.8 mM
  Cytotoxicity: 15 % of control
WiDr cells [1]; [7]
  Max. PpIX content: 94** ng/mg protein
WiDr cells [1]; WiDr cells, 4 hours incubation
  Compound concentration for max PpIX formation: 0.1 mM
WiDr cells [2]
  Dark toxicity (cell toxicity in the absence of light): weak cell toxicity
WiDr cells [2]; range of 0.3 to 1 mM, 4 hours in the dark
  Minimum cell survival rate: 85%

## NCC(=O)CCC(=O)OCCCC(=O)O [Compound 5, 3-carboxypropyl 5-amino-4-oxopentanoate hydrochloride]
[6]; 0.3 mM
  PpIX Mean ± SD: 221 ± 32 pmoles/mg protein
[6]; 0.5 mM
  PpIX Mean ± SD: 224 ± 35 pmoles/mg protein
[6]; 1 mM
  PpIX Mean ± SD: 261 ± 52 pmoles/mg protein
[6]; 5 mM
  PpIX Mean ± SD: 250 ± 83 pmoles/mg protein
[6]; 15 mM
  PpIX Mean ± SD: 216 ± 11 pmoles/mg protein
[5]; 1 mM
  Cytotoxicity: 17 % of control
[5]; 5 mM
  Cytotoxicity: 30 % of control
[5]; 15 mM
  Cytotoxicity: 37 % of control
[5]
  Levels of cytotoxicity compared to HAL: comparable and acceptable
WiDr cells [1]; [7]
  Max. PpIX content: 30 ng/mg protein
WiDr cells [1]; WiDr cells, 4 hours incubation
  Compound concentration for max PpIX formation: 1 mM
WiDr cells [2]
  Dark toxicity (cell toxicity in the absence of light): no cell toxicity was observed
[4]
  Ratio of skin fluorescence in UV-damaged mouse skin to skin fluorescence in healthy mouse skin: 2.72
  Selectivity for UV-damaged skin: pronounced selectivity for UV-damaged skin

## NCC(=O)CCC(=O)OCc1ccc(C(=O)O)cc1 [Compound 7, (4-carboxyphenyl)methyl 5-amino-4-oxopentanoate hydrobromide]
[3]
  Skin fluorescence: 2995 a.u.

## NCC(=O)CCC(=O)OCCCCC(=O)O [Compound 8, 4-carboxybutyl 5-amino-4-oxopentanoate hydrochloride]
[6]; 0.3 mM
  PpIX Mean ± SD: 243 ± 28 pmoles/mg protein
[6]; 0.5 mM
  PpIX Mean ± SD: 219 ± 51 pmoles/mg protein
[6]; 1 mM
  PpIX Mean ± SD: 258 ± 62 pmoles/mg protein
[6]; 5 mM
  PpIX Mean ± SD: 234 ± 78 pmoles/mg protein
[6]; 15 mM
  PpIX Mean ± SD: 213 ± 64 pmoles/mg protein
[5]; 1 mM
  Cytotoxicity: 18 % of control
[5]; 5 mM
  Cytotoxicity: 26 % of control
[5]; 15 mM
  Cytotoxicity: 38 % of control
[5]
  Levels of cytotoxicity compared to HAL: comparable and acceptable
